Results published in ChEMBL document CHEMBL1201862, “PubChem BioAssay data set” (2004).
Several values for one entry are separate records, joined by “and”; a condition that tells them apart may be missing. Equal entries are not always repeated.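 96-well plates; 48 h exposure; 5 concentrations. Endpoints by linear interpolation between flanking doses. Not reached: highest tested concentration assigned. Here, GI50 denotes the concentration required for 50% inhibition of growth.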 Activity calls are given as the source filed them. Cut-off read from the data, not from the text of the source: active = GI50 up to about 1.1 µM and inactive = higher.

Experiments:
Assay in all cases: NCI-60 cell line screen, 48 h
NCI-H522 = system: NCI-H522
SNB-75 = system: SNB-75
Hs-578T = system: Hs-578T
SNB-19 = system: SNB-19
EKVX = system: EKVX
CCRF-CEM = system: CCRF-CEM
PC-3 = system: PC-3
ACHN = system: ACHN
SF-268 = system: SF-268
MDA-MB-231 = system: MDA-MB-231
NCI-H460 = system: NCI-H460
SW-620 = system: SW-620
HL-60 = system: HL-60
OVCAR-3 = system: OVCAR-3
TK-10 = system: TK-10
MDA-MB-435 = system: MDA-MB-435
SF-295 = system: SF-295
K562 = system: K562
U-251 = system: U-251
UACC-62 = system: UACC-62

Compound	GI50 (NCI-H522)	GI50 (SNB-75)	GI50 (Hs-578T)	GI50 (SNB-19)	GI50 (EKVX)	GI50 (CCRF-CEM)	GI50 (PC-3)	GI50 (ACHN)	GI50 (SF-268)	GI50 (MDA-MB-231)	GI50 (NCI-H460)	GI50 (SW-620)	GI50 (HL-60)	GI50 (OVCAR-3)	GI50 (TK-10)	GI50 (MDA-MB-435)	GI50 (SF-295)	GI50 (K562)	GI50 (U-251)	GI50 (UACC-62)
CN1C2CCC1CC(CCOC(c1ccc(F)cc1)c1ccc(F)cc1)C2 (centres undefined)	17.1 µM (inactive)	14.3 µM (inactive)	17.8 µM (inactive)	20.7 µM (inactive)	13.9 µM (inactive)	18.4 µM (inactive)	15.5 µM (inactive)	17.1 µM (inactive)	15.8 µM (inactive)	16.2 µM (inactive)	17.5 µM (inactive)	19.4 µM (inactive)	16.1 µM (inactive)	16 µM (inactive)	15.3 µM (inactive)	12.4 µM (inactive)	16.9 µM (inactive)	12.4 µM (inactive)	14.9 µM (inactive)	–
COc1ccc2[nH]c3c(c2c1)CC(=O)N1CCCC(CC3O)C1 (centres undefined)	> 100 µM (inactive)	> 100 µM (inactive)	> 100 µM (inactive)	> 100 µM (inactive)	–	–	> 100 µM (inactive)	> 100 µM (inactive)	> 100 µM (inactive)	> 100 µM (inactive)	> 100 µM (inactive)	> 100 µM (inactive)	–	–	> 100 µM (inactive)	> 100 µM (inactive)	> 100 µM (inactive)	> 100 µM (inactive)	> 100 µM (inactive)	> 100 µM (inactive)
O=[N+]([O-])C(/C=C(\Cl)[N+](=O)[O-])=C(N1CCCCC1)N1CCCCC1	58.6 µM (inactive)	–	58.2 µM (inactive)	> 100 µM (inactive)	> 100 µM (inactive)	13.2 µM (inactive)	39.6 µM (inactive)	48.9 µM (inactive)	51.2 µM (inactive)	92 µM (inactive)	36.1 µM (inactive)	–	20.1 µM (inactive)	27.5 µM (inactive)	> 100 µM (inactive)	16.7 µM (inactive)	> 100 µM (inactive)	27 µM (inactive)	65 µM (inactive)	18.6 µM (inactive)
COc1ccc(C(=O)/C=C/c2ccc(OCC(=N)N)cc2)cc1	> 10 µM (inactive)	5.73 µM (inactive)	16.4 µM (inactive)	15.8 µM (inactive)	16.4 µM (inactive)	4.06 µM (inactive)	14.7 µM (inactive)	17.6 µM (inactive)	17.3 µM (inactive)	12.9 µM (inactive)	> 10 µM (inactive)	3.7 µM (inactive)	–	14.4 µM (inactive)	21.4 µM (inactive)	19.3 µM (inactive)	16.3 µM (inactive)	3.44 µM (inactive)	13.9 µM (inactive)	15.6 µM (inactive)
O=c1c2ccccc2nc2n1C(c1ccc([N+](=O)[O-])cc1)C2(c1ccccc1)c1ccccc1 (centres undefined)	> 100 µM (inactive)	–	66.2 µM (inactive)	14.5 µM (inactive)	> 100 µM (inactive)	8.45 µM (inactive)	24 µM (inactive)	> 100 µM (inactive)	> 100 µM (inactive)	> 100 µM (inactive)	> 100 µM (inactive)	> 100 µM (inactive)	37.2 µM (inactive)	> 100 µM (inactive)	> 100 µM (inactive)	> 100 µM (inactive)	> 100 µM (inactive)	–	> 100 µM (inactive)	> 100 µM (inactive)
CC(=O)OCC1OC(N2C(S)=C(C#N)C(c3ccco3)C(C(C)=O)=C2c2ccccc2)C(OC(C)=O)C(OC(C)=O)C1OC(C)=O (centres undefined)	32.1 µM (inactive)	8.49 µM (inactive)	17.7 µM (inactive)	39.5 µM (inactive)	–	28.3 µM (inactive)	24.9 µM (inactive)	> 10 µM (inactive)	> 100 µM (inactive)	> 100 µM (inactive)	> 100 µM (inactive)	89.9 µM (inactive)	> 100 µM (inactive)	77.6 µM (inactive)	> 100 µM (inactive)	> 100 µM (inactive)	23.4 µM (inactive)	> 100 µM (inactive)	39.3 µM (inactive)	34 µM (inactive)
COc1ccc([C@]23CCN4COC[C@@H]([C@H]42)C2(CC3)OCC(C)(C)CO2)cc1OC	> 100 µM (inactive)	53.3 µM (inactive)	> 100 µM (inactive)	> 100 µM (inactive)	> 100 µM (inactive)	> 100 µM (inactive)	> 100 µM (inactive)	> 100 µM (inactive)	> 100 µM (inactive)	> 100 µM (inactive)	> 100 µM (inactive)	> 100 µM (inactive)	> 100 µM (inactive)	–	> 100 µM (inactive)	> 100 µM (inactive)	> 100 µM (inactive)	> 100 µM (inactive)	> 100 µM (inactive)	> 100 µM (inactive)
Cc1ccc(C(=O)Nc2ccc(CP(=O)(O)O)cc2CP(=O)(O)O)cc1NC(=O)c1cccc(NC(=O)Nc2cccc(C(=O)Nc3cc(C(=O)Nc4ccc(CP(=O)(O)O)cc4CP(=O)(O)O)ccc3C)c2)c1	> 100 µM (inactive)	> 100 µM (inactive)	> 100 µM (inactive)	–	> 100 µM (inactive)	> 100 µM (inactive)	> 100 µM (inactive)	> 100 µM (inactive)	> 100 µM (inactive)	> 100 µM (inactive)	> 100 µM (inactive)	41.8 µM (inactive)	> 100 µM (inactive)	> 100 µM (inactive)	> 100 µM (inactive)	> 100 µM (inactive)	> 100 µM (inactive)	> 100 µM (inactive)	> 100 µM (inactive)	> 100 µM (inactive)
CCOC(=O)CC1C(O)C(=O)N(C)C1c1ccccc1 (centres undefined)	> 100 µM (inactive)	> 100 µM (inactive)	> 100 µM (inactive)	> 100 µM (inactive)	> 100 µM (inactive)	> 100 µM (inactive)	> 100 µM (inactive)	> 100 µM (inactive)	> 100 µM (inactive)	> 100 µM (inactive)	–	> 100 µM (inactive)	> 100 µM (inactive)	> 100 µM (inactive)	> 100 µM (inactive)	> 100 µM (inactive)	> 100 µM (inactive)	> 100 µM (inactive)	> 100 µM (inactive)	> 100 µM (inactive)
O=C1N/C(=N/N=C\C(O)C(O)C(O)C(O)CO)N/C1=C/c1ccc(Cl)cc1 (centres undefined)	55.6 µM (inactive) and 58.1 µM (inactive)	> 100 µM (inactive)	> 100 µM (inactive)	> 100 µM (inactive)	> 100 µM (inactive) and 84.5 µM (inactive)	40.4 µM (inactive)	> 100 µM (inactive)	> 100 µM (inactive)	> 100 µM (inactive) and 98.2 µM (inactive)	> 100 µM (inactive)	> 100 µM (inactive)	> 100 µM (inactive)	14.4 µM (inactive) and 23.8 µM (inactive)	43.6 µM (inactive) and 31.6 µM (inactive)	> 100 µM (inactive)	> 100 µM (inactive)	> 100 µM (inactive)	55.6 µM (inactive) and 27.7 µM (inactive)	> 100 µM (inactive)	–
Clc1ccccc1CN1COc2c(cc(Cl)c3cccnc23)C1	3.4 µM (inactive)	5.68 µM (inactive)	4.62 µM (inactive)	4.35 µM (inactive)	–	–	2.57 µM (inactive)	1.84 µM (inactive)	5.18 µM (inactive)	2.3 µM (inactive)	2.75 µM (inactive)	5.01 µM (inactive)	0.398 µM (active)	6.59 µM (inactive)	3.44 µM (inactive)	6.19 µM (inactive)	1.85 µM (inactive)	2.99 µM (inactive)	3.33 µM (inactive)	1.52 µM (inactive)
CC(=O)Nc1cc(CN2CCCCC2)c(O)c2ncccc12	37.3 µM (inactive)	–	67.3 µM (inactive)	39.7 µM (inactive)	30.4 µM (inactive)	41.5 µM (inactive)	21.6 µM (inactive)	17.8 µM (inactive)	23.7 µM (inactive)	15.8 µM (inactive)	11.7 µM (inactive)	39.7 µM (inactive)	14.5 µM (inactive)	25.8 µM (inactive)	29 µM (inactive)	31.4 µM (inactive)	25.4 µM (inactive)	21.3 µM (inactive)	17.1 µM (inactive)	19.6 µM (inactive)
CC(C)=CCNc1nc(Cl)nc2[nH]cnc12	> 100 µM (inactive)	> 100 µM (inactive)	62.8 µM (inactive)	29 µM (inactive)	15.7 µM (inactive)	76.6 µM (inactive)	> 100 µM (inactive)	54.1 µM (inactive)	55 µM (inactive)	21.5 µM (inactive)	16.7 µM (inactive)	> 100 µM (inactive)	> 100 µM (inactive)	> 100 µM (inactive)	71.6 µM (inactive)	> 100 µM (inactive)	42.6 µM (inactive)	32.1 µM (inactive)	–	> 100 µM (inactive)
CC(=O)Oc1ccc2c(c1)O/C(=C\c1ccc(N(C)C)cc1)C2=O	25.9 µM (inactive)	87.9 µM (inactive)	21 µM (inactive)	53.8 µM (inactive)	> 100 µM (inactive)	82.4 µM (inactive)	> 100 µM (inactive)	> 100 µM (inactive)	> 100 µM (inactive)	68.5 µM (inactive)	70.1 µM (inactive)	52.2 µM (inactive)	32.7 µM (inactive)	–	> 100 µM (inactive)	35.3 µM (inactive)	–	27.9 µM (inactive)	37.7 µM (inactive)	> 100 µM (inactive)
